Consider 21 molecules from patent US5733918A, “Condensed-Indan derivatives and pharmaceutically acceptable salts thereof” (Taiho Pharmaceutical Co., Ltd., priority 1994, dated 1998).

In brackets after ≈: the same amount, converted by molar mass.

For assay [1], the system named is P388 mouse leukemia cells. The assay can be described thus: Antineoplastic action: increase in life span of CDF1 mice bearing P388 mouse leukemia cells. The following applies: P388, ip. In kind it is in vivo.
Method: P388 mouse leukemia cells (1×10^6 cells/mouse) were injected intraperitoneally into CDF1 mouse. Each of the compound of the invention dissolved in 5% glucose or 5% dimethylsulfoxide at each of predetermined concentration was injected intraperitoneally on 1 and 5 days after injection. The antitumor activity thereof was evaluated as percentage of increase in life span (ILS %) compared to the mean survival of the untreated control group.
Assay [2] deals with P388 mouse leukemia cells. The assay can be described thus: Cytotoxicity against P388 mouse leukemia cells (crystal violet staining). The assay is classed as cell-based. The following applies: 72 h, 3 days incubation, cell number reduced to 50% of control. On the procedure:
P388 mouse leukemia cells were plated into 96-well plate at the density of 2×10^3 cells/well. The compounds of the invention were dissolved in purified water or dimethylsulfoxide and the solution was diluted with medium to various concentrations and added to respective wells. After the plate was incubated for 3 days, the cultures were fixed with glutaraldehyde and the number of survived cells were determined by crystal violet staining method.

[3] abbreviates: i.p. on 1 and 5 days after tumor injection, CDF1 mouse, vs untreated control.

On to `COc1ccc2c3c(c(NCCN(C)C)nc2c1)C(=O)c1ccccc1-3` [Compound 1-a], for which the ILS (usually the gain in survival time of treated over control animals, in per cent) at 100 mg/kg/day in assay [1] (setting [3]) was 68%. Also, the IC50 (as a rule, the concentration needed to halve the response being measured) in assay [2] turned out to be 24 ng/mL (≈ 69.1 nM).

The molecule `CN(C)CCNc1nc2cc(F)ccc2c2c1C(=O)c1ccccc1-2.Cl.Cl` [Compound 2, 6-(((dimethylamino)ethyl)amino)-3-fluoro-7H-indeno[2,1-c]quinoline-7-on dihydrochloride] yielded an ILS at 67 mg/kg/day in assay [1] (setting [3]) of 85%. This molecule also returned an IC50 in assay [2] of 4.8 ng/mL.

As for `CN(C)CCNc1nc2cc(O)ccc2c2c1C(=O)c1ccccc1-2` [Compound 3-a], the ILS at 10 mg/kg/day in assay [1] (Mus musculus, read-out: Increase in life span (ILS %)) was found to be 94.4%.

For the molecule `CCN(CC)CCNc1nc2cc(O)ccc2c2c1C(=O)c1ccccc1-2` [Compound 7], in assay [1] (setting [3]), the ILS at 44 mg/kg/day amounted to 223%. For the same molecule, in assay [2], the IC50 worked out at 0.65 ng/mL (≈ 1.8 nM).

Consider `CN1CCN(c2nc3cc(O)ccc3c3c2C(=O)c2ccccc2-3)CC1` [Compound 9-a], for which the ILS at 150 mg/kg/day in assay [1] (setting [3]) was 60%. In assay [2], this molecule yielded an IC50 of 7.4 ng/mL (≈ 21.4 nM).

Consider `CN(C)CCNc1nc2cc(O)ccc2c2c1C(=O)c1cc(Cl)ccc1-2` [Compound 23-a], for which half-maximal inhibition in assay [2] (IC50) was put at 0.11 ng/mL (≈ 0.299 nM).

The molecule `O=C1c2ccccc2-c2c1c(NCCN1CCCC1)nc1cc(O)ccc21` [Compound 26-a] came in with an ILS at 30 mg/kg/day in assay [1] (setting [3]) of 70.6%. Also, the IC50 in assay [2] came out at 0.42 ng/mL (≈ 1.17 nM).

For the molecule `CN(C)CCNc1nc2ccccc2c2c1C(=O)c1ccccc1-2` [Compound 28-a], the ILS at 67 mg/kg/day in assay [1] (setting [3]) came out at 180%. In assay [2], this molecule showed an IC50 of 2 ng/mL (≈ 6.3 nM).

`CN(C)CCNc1nc2ccc(O)cc2c2c1C(=O)c1ccccc1-2` [Compound 31-a] had an ILS at 30 mg/kg/day in assay [1] (setting [3]) of 48.5%. The molecule further displayed an IC50 in assay [2] of 6 ng/mL (≈ 18 nM).

Take `CN(C)CCNc1nc2cc(N)ccc2c2c1C(=O)c1ccccc1-2` [Compound 41-a]: the ILS at 67 mg/kg/day in assay [1] (setting [3]) came to 306%. In assay [2], this molecule displayed an IC50 of 11 ng/mL (≈ 33.1 nM).

Turning to `CN(C)CCNc1nc2ccccc2c2c1C(=O)c1cc(O)ccc1-2` [Compound 47-a], in assay [1] (setting [3]), the ILS at 44 mg/kg/day came out at 130%. In addition, half-maximal inhibition in assay [2] (IC50) was put at 1.3 ng/mL (≈ 3.9 nM).

As for `CN(C)CCNc1nc2ccccc2c2c1C(=O)c1ccc(O)cc1-2` [Compound 49-a], in assay [1] (setting [3]), the ILS at 150 mg/kg/day came out at 66.7%. The molecule further had an IC50 in assay [2] of 2 ng/mL (≈ 6 nM).

For `CN(C)CCNc1nc2cc(O)ccc2c2c1C(=O)c1cc(O)ccc1-2` [Compound 50-a], the ILS at 20 mg/kg/day in assay [1] (dose 20 mg/kg/day, i.p. on 1 and 5 days after tumor injection, CDF1 mouse, vs untreated control) was 45.2%. The molecule also showed an IC50 in assay [2] of 1.1 ng/mL (≈ 3.15 nM).

With `O=C1c2ccccc2-c2c1c(NCCNCCO)nc1cc(O)ccc21` [Compound 55], in assay [2], the half-maximal inhibitory concentration (IC50) turned out to be 0.95 ng/mL (≈ 2.72 nM).

As to `CNCCNc1nc2cc(O)ccc2c2c1C(=O)c1ccccc1-2.Cl.Cl.Cl` [Compound 60, 6-(((methylamino)ethyl)amino)-3-hydroxy-7H-indeno[2,1-c]quinoline-7-on-trihydrochloride], in assay [2], it took 0.66 ng/mL to reach half-maximal inhibition (IC50).

In turn, `CN(C)CCOc1nc2cc(O)ccc2c2c1C(=O)c1ccccc1-2` [Compound 62] had an IC50 in assay [2] of 0.3 ng/mL (≈ 0.897 nM).

`CN(C)CCOc1nc2ccccc2c2c1C(=O)c1cc3c(cc1-2)OCO3` [Compound 64-a] registered an ILS at 67 mg/kg/day in assay [1] (setting [3]) of 153%. For the same molecule, the IC50 in assay [2] was found to be 0.87 ng/mL (≈ 2.4 nM).

Consider `CN(C)CCNc1nc2ccccc2c2c1C(=O)c1cc3c(cc1-2)OCO3` [Compound 66-a], for which the ILS at 44 mg/kg/day in assay [1] (setting [3]) was 141%. The same molecule gave an IC50 in assay [2] of 1.2 ng/mL (≈ 3.32 nM).

Turning to `CN(C)CCNc1nc2cc3c(cc2c2c1C(=O)c1ccccc1-2)OCO3` [Compound 73-a], the ILS at 44 mg/kg/day in assay [1] (setting [3]) stood at 129%. This molecule registered an IC50 in assay [2] of 13 ng/mL (≈ 36 nM).

Turning to `CN1CCN(c2nc3c(c4ccccc24)-c2ccccc2C3=O)CC1` [Compound 75, 6-(1-(4-methylpiperazinyl))-7H-indeno[2,1-c]isoquinoline-7-on], half-maximal inhibition in assay [2] (IC50) was put at 450 ng/mL (≈ 1370 nM).

`CN(C)CCN(C)c1nc2c(c3ccccc13)-c1ccccc1C2=O` [Compound 76]: in assay [1] (setting [3]), the ILS at 100 mg/kg/day came to 75%. Moreover, the IC50 in assay [2] was found to be 160 ng/mL (≈ 483 nM).
